Experimental data published in patent EP3428647A1, “EXPRESSION SIGNATURE FOR GLIOMA DIAGNOSIS AND/OR PROGNOSIS IN A SUBJECT” (Consejo Superior de Investigaciones Científicas (CSIC), priority 2017, dated 2019).
Read-outs that look alike come from different tables or passages of the source.

Assays:
[1] = tested on: SF268 NAMPT-underexpressing cells; experiment: Colony formation (clonogenicity) assay, rescue; assay type: cell-based, human; settings: 1 mM NMN; compared to sh
Experimental: (§1) 10^3 cells were seeded in 10 cm plates, every condition in triplicate. The medium was replaced every 3 days and after 12 days the colonies were fixed and stained with a Crystal violet assay. After extensive-washing, colonies were counted. Values are expressed in number of observed colonies among 10^3 seeded cells. To analyze the clonal heterogeneity, 10^2 random colonies were classified in triplicate depending on its phenotype: Holoclone, Meroclone and Paraclone (Li H. et al 2008.; Garcia-Heredia JM, Lucena-Cacace A, Verdugo-Sivianes EM, Perez M, Carnero A. The cargo protein MAP17 (PDZK1IP1) regulates the cancer stem cell pool activating the Notch pathway by abducting NUMB. Clin Cancer Res. 2017 Feb 2. doi: 10.1158/1078-0432.CCR-16-2358. [
(§2) NAMPT catalyzes the conversion of nicotinamide to nicotinamide mononucleotide (NMN), which is the rate-limiting step in the NAD salvage pathway. If the enzymatic activity of NAMPT is directly responsible for these phenotypes, the phenotype should be recovered by directly adding the product of the enzyme to cells. Therefore, we repeated the previous surrogate experiments and added saturating concentrations of NMN to cells expressing low levels of NAMPT (sh supplemented with NMN, sh+NMN). In these experiments, we rescued the parental phenotypes by supplying the cells with the NAMPT metabolic product NMN (Figure 6A-D left). […]

[2] = tested on: NAMPT- underexpressing cells; experiment: Clonal heterogeneity analysis (clone phenotypes), rescue; assay type: cell-based, human; settings: 1 mM NMN; both cell lines
Experimental: as §1, §2

[3] = tested on: SF268 NAMPT-underexpressing cells; experiment: Proliferation assay (growth curve), rescue of NAMPT-underexpressing cells; assay type: cell-based, human; settings: 1 mM NMN; compared to sh
Experimental: A time course curve of parental (empty vector transfected cells) and NAMPT both cDNA and shRNA-expressing cells was generated by seeding […] in 2.2 cm bottom-well diameter dishes in triplicate samples. After 24 hours, medium was changed (day 0) and the indicated culture media added. Every 24 hours, cells were fixed and stained with crystal violet 1% (SIGMA C6158-50G). After extensive washing, crystal violet was solubilized in 20% acetic acid (Sigma) and quantified at 595 nm absorbance as a relative measure of cell number (BIORAD iMarkTM Microplate Reader). Values are expressed as the percentage of cell growth of cells growing in the presence of 10% FBS. Zero percent refers to the number of cells at day 0.
as §2

[4] = tested on: SF268 and U251MG NAMPT-underexpressing cells; experiment: FACS analysis of CD133 and CD44, rescue; assay type: cell-based, human; settings: 1 mM NMN; both cell lines
Experimental: Single cells were individually seeded through cell sorting (BD FACS Jazz) in 96 well Ultra-low attachment plates containing MammoCultTM Basal medium (Human) (Stem Cell Tech) supplied with hydrocortisone 0.48 mg/mL, Heparin solution 0.2% and 10% MammoCult™ Proliferation Supplement (Human). After 21 days, primary tumorspheres formed were measured both in size and number using inverted microscope (Olympus CKX41). Fluorescence-activated cell sorting (FAC). For FACS staining, live cells were incubated with CD133 (AC133-PE, Miltenyi) and CD44 (PE, Miltenyi) for 30 minutes at dilutions specified in the manufacturer's protocols.
NAMPT catalyzes the conversion of nicotinamide to nicotinamide mononucleotide (NMN), which is the rate-limiting step in the NAD salvage pathway. If the enzymatic activity of NAMPT is directly responsible for these phenotypes, the phenotype should be recovered by directly adding the product of the enzyme to cells. Therefore, we repeated the previous surrogate experiments and added saturating concentrations of NMN to cells expressing low levels of NAMPT (sh supplemented with NMN, sh+NMN). In these experiments, we rescued the parental phenotypes by supplying the cells with the NAMPT metabolic product NMN (Figure 6A-D left). […] Similar results were found using a second shRNA against NAMPT (Figure 4A, B). […]

[5] = tested on: SF268 NAMPT-underexpressing cells; experiment: Sphere-forming assay, rescue; assay type: cell-based, human; settings: 1 mM NMN; compared to sh
Experimental: (§3) A total of 5x10^3 cells/mL/well were seeded in Ultra-low Attachment Plates containing MammoCultTM Basal Medium (Human) (Stem Cell Tech) supplied with 0.48 mg/mL hydrocortisone, 0.2% heparin solution and 10% MammoCult™ Proliferation Supplement (Human). After 4 days, primary tumorspheres were measured, both in size and in number, using an inverted microscope (Olympus CKX41).
NAMPT catalyzes the conversion of nicotinamide to nicotinamide mononucleotide (NMN), which is the rate-limiting step in the NAD salvage pathway. If the enzymatic activity of NAMPT is directly responsible for these phenotypes, the phenotype should be recovered by directly adding the product of the enzyme to cells. Therefore, we repeated the previous surrogate experiments and added saturating concentrations of NMN to cells expressing low levels of NAMPT (sh supplemented with NMN, sh+NMN). In these experiments, we rescued the parental phenotypes by supplying the cells with the NAMPT metabolic product NMN (Figure 6A-D left). […] Similar results were found using a second shRNA against NAMPT (Figure 4A, B).
Similar results were found using a second shRNA against NAMPT (Figure 4A, B).

[6] = tested on: SF268; experiment: Cytotoxic assay MTT, monolayer culture; assay type: cell-based, human; settings: for IC50: Homo sapiens, monolayer
Experimental: (§4) The human Glioblastoma cell line SF268 and U251MG were cultured in RPMI 1640 medium (SIGMA) supplemented with 10% Fetal Bovine Serum (FBS) at 37°C under 5% CO2 atmosphere. For DNA transfection, SF268 and U251MG were transfected with Mirus TransIT-X2 Dynamic Delivery System (Mirus MIR6000) in exponential phase with 2.5 µg of a small hairping RNA (shRNA) against NAMPT (QIAGEN SureSilencing shRNA insert sequence: 5'-[…]-3' (SEQ ID NO: 17)), 2.5 µg of DNA carrying an hygromycin empty vector (QIAGEN noncoding sequence: 5'-[…]-3' (SEQ ID NO: 18)) and 2.5 µg of DNA of pCMV-hygromycin carrying a cDNA of NAMPT gene (SinoBiological HG10990-M).
5x10^3 SF268 cells were seeded then treated with FK866 24 hours later. After 96 hours, cell viability was measured with MTT.
(§5) For the assay, 5x10^3 cells were seeded and then treated with the different compound at 11 different concentrations at 1/3 dilutions after 24 hours. Then, 96 hours later, cell viability was measured via MTT assay and validated independently by crystal violet staining. IC50 was calculated as the concentration allowing 50% survival compared to day 0 controls. Combination experiments were performed testing 11 different concentrations at 1/3 dilutions of FK866 and maintaining same suboptimal concentration of TMZ (as indicated) in all tested points.

[7] = tested on: SF268 tumorspheres; experiment: Cytotoxic assay, tumorsphere specific assay; assay type: cell-based, human; settings: for IC50: Homo sapiens
Experimental: as §3, §5

[8] = tested on: U251MG; experiment: Cytotoxic assay MTT, monolayer culture; assay type: cell-based; settings: Homo sapiens
Experimental: as §4, §5

[9] = tested on: U251MG tumorspheres; experiment: Cytotoxic assay, tumorsphere specific assay; assay type: cell-based; settings: Homo sapiens
Experimental: as §3, §5

[10] = SF-268, SF268 NAMPT (overexpressing), combined with constant 100 µM TMZ, read-out: IC50 FK866 + 100 µM TMZ (nM ± SD)
[11] = SF-268, SF268 sh (NAMPT shRNA), combined with constant 100 µM TMZ, read-out: IC50 FK866 + 100 µM TMZ (nM ± SD)
[12] = SF-268, SF268 v (vector only), combined with constant 100 µM TMZ, read-out: IC50 FK866 + 100 µM TMZ (nM ± SD)
[13] = U-251, U251MG NAMPT (overexpressing), combined with constant 150 µM TMZ, read-out: IC50 FK866 + 150 µM TMZ (nM ± SD)
[14] = U-251, U251MG sh (NAMPT shRNA), combined with constant 150 µM TMZ, read-out: IC50 FK866 + 150 µM TMZ (nM ± SD)
[15] = U-251, U251MG v (vector only), combined with constant 150 µM TMZ, read-out: IC50 FK866 + 150 µM TMZ (nM ± SD)

NC(=O)c1ccc[n+](C2OC(COP(=O)([O-])O)C(O)C2O)c1 (stereo not drawn) [NMN, nicotinamide mononucleotide]
clonogenicity [1]: can rescue the clonogenetic ability of the vector
number of holoclones [2]: can rescue the number of holoclones in the vector
growth curve, vector-proliferation ratio [3]: can rescue the vector-proliferation ratio
levels of CD44 expression [4]: can rescue the levels of CD44 expression in the vector
levels of CD133 expression [4]: can rescue and surpass the levels of CD133 expression in the vector
tumorsphere area / number of tumorspheres [5]: can rescue the number of tumorspheres generated in the vector

O=C(/C=C/c1cccnc1)NCCCCC1CCN(C(=O)c2ccccc2)CC1 [FK866]
IC50 ([6]; SF-268, 96 h, SF268 NAMPT (overexpressing), monotherapy, 96 hours, read-out: IC50 FK866 (nM ± SD)): 2.8 ± 0.3 nM
IC50 ([6]; SF-268, 96 h, SF268 sh (NAMPT shRNA), monotherapy, 96 hours, read-out: IC50 FK866 (nM ± SD)): 8.3 ± 0.8 nM
IC50 ([6]; SF-268, 96 h, SF268 v (vector only), monotherapy, 96 hours, read-out: IC50 FK866 (nM ± SD)): 5.2 ± 0.9 nM
IC50 [6, 10]: 0.2 ± 0.4 nM
IC50 [6, 11]: 6.1 ± 0.2 nM
IC50 [6, 12]: 2.4 ± 0.4 nM
effect of combined treatment with TMZ on the values ([6]; both in mass cultures and tumorspheres): slightly sensitized
sensitivity of NAMPT-overexpressing cells in mass cultures ([6]; compared with parental cells and NAMPT underexpressing cells): more sensitive
induced toxicity in tumorspheres (CIC population) [7]: effective
IC50 [7, 10]: 0.5 ± 1.1 nM
IC50 ([7]; SF-268, SF268 NAMPT (overexpressing), monotherapy, read-out: IC50 FK866 (nM ± SD)): 2.5 ± 0.4 nM
IC50 [7, 11]: 7.3 ± 0.7 nM
IC50 ([7]; SF-268, SF268 sh (NAMPT shRNA), monotherapy, read-out: IC50 FK866 (nM ± SD)): 9.5 ± 0.9 nM
IC50 [7, 12]: 4.2 ± 0.3 nM
IC50 ([7]; SF-268, SF268 v (vector only), monotherapy, read-out: IC50 FK866 (nM ± SD)): 6.1 ± 1.2 nM
IC50 ([8]; U-251, 96 h, U251MG NAMPT (overexpressing), monotherapy, 96 hours, read-out: IC50 FK866 (nM ± SD)): 15.3 ± 1.2 nM
IC50 ([8]; U-251, 96 h, U251MG sh (NAMPT shRNA), monotherapy, 96 hours, read-out: IC50 FK866 (nM ± SD)): 22.3 ± 0.6 nM
IC50 ([8]; U-251, 96 h, U251MG v (vector only), monotherapy, 96 hours, read-out: IC50 FK866 (nM ± SD)): 20.7 ± 0.7 nM
IC50 [8, 13]: 5.1 ± 1.4 nM
IC50 [8, 14]: 19.4 ± 0.7 nM
IC50 [8, 15]: 14.3 ± 1.3 nM
IC50 [9, 13]: 7.2 ± 0.7 nM
IC50 ([9]; U-251, U251MG NAMPT (overexpressing), monotherapy, read-out: IC50 FK866 (nM ± SD)): 11.3 ± 1.3 nM
IC50 [9, 14]: 25.4 ± 1.8 nM
IC50 ([9]; U-251, U251MG sh (NAMPT shRNA), monotherapy, read-out: IC50 FK866 (nM ± SD)): 27.3 ± 1.4 nM
IC50 [9, 15]: 17.1 ± 0.9 nM
IC50 ([9]; U-251, U251MG v (vector only), monotherapy, read-out: IC50 FK866 (nM ± SD)): 18.6 ± 1.9 nM

Cn1nnc2c(C(N)=O)ncn2c1=O [TMZ, Temozolomide]
IC50 ([6]; SF-268, 96 h, SF268 NAMPT (overexpressing), monotherapy, 96 hours, read-out: IC50 TMZ (µM ± SD)): 174000 ± 2100 nM
IC50 ([6]; SF-268, 96 h, SF268 sh (NAMPT shRNA), monotherapy, 96 hours, read-out: IC50 TMZ (µM ± SD)): 163000 ± 2200 nM
IC50 ([6]; SF-268, 96 h, SF268 v (vector only), monotherapy, 96 hours, read-out: IC50 TMZ (µM ± SD)): 165000 ± 1900 nM
IC50 ([7]; SF-268, SF268 NAMPT (overexpressing), monotherapy, read-out: IC50 TMZ (µM ± SD)): 173000 ± 3200 nM
IC50 ([7]; SF-268, SF268 sh (NAMPT shRNA), monotherapy, read-out: IC50 TMZ (µM ± SD)): 174000 ± 3600 nM
IC50 ([7]; SF-268, SF268 v (vector only), monotherapy, read-out: IC50 TMZ (µM ± SD)): 170000 ± 2100 nM
IC50 ([8]; U-251, 96 h, U251MG NAMPT (overexpressing), monotherapy, 96 hours, read-out: IC50 TMZ (µM ± SD)): 201000 ± 5300 nM
IC50 ([8]; U-251, 96 h, U251MG sh (NAMPT shRNA), monotherapy, 96 hours, read-out: IC50 TMZ (µM ± SD)): 204000 ± 4800 nM
IC50 ([8]; U-251, 96 h, U251MG v (vector only), monotherapy, 96 hours, read-out: IC50 TMZ (µM ± SD)): 194000 ± 3400 nM
IC50 ([9]; U-251, U251MG NAMPT (overexpressing), monotherapy, read-out: IC50 TMZ (µM ± SD)): 222000 ± 4700 nM
IC50 ([9]; U-251, U251MG sh (NAMPT shRNA), monotherapy, read-out: IC50 TMZ (µM ± SD)): 221000 ± 3200 nM
IC50 ([9]; U-251, U251MG v (vector only), monotherapy, read-out: IC50 TMZ (µM ± SD)): 224500 ± 1700 nM
